Bounds are passed on as bounds.

The target of this assay is T1, ZAP-70 (Homo sapiens, UniProt P43403).
T1 construct: endogenous in cells; host or cells: cell lysate
T1 sequence (P43403 1-619): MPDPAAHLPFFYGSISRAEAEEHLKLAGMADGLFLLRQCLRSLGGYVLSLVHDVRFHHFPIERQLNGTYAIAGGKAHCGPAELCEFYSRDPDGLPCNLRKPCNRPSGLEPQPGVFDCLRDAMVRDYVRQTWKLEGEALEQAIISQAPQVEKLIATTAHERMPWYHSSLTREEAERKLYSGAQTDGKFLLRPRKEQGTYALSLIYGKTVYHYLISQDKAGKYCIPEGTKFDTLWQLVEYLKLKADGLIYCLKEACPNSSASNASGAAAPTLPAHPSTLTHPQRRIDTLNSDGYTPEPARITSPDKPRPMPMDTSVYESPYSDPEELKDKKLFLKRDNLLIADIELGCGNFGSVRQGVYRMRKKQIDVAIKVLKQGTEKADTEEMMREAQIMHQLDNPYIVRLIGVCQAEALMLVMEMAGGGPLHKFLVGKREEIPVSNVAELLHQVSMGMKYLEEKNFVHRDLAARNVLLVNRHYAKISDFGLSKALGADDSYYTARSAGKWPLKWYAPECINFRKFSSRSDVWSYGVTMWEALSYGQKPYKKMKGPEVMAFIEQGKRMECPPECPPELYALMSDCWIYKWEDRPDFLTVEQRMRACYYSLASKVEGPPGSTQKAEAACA
Description: ZAP-70 kinobeads assay. The conditions noted are these: competition with immobilized aminopyrido-pyrimidine ligand 24 in cell lysate; ZAP-70 detected by dot blot. It counts as binding. Here is the method:
The compounds of the present invention as described in the previous examples can be tested in the ZAP-70 kinobeads assay as described (EP-A 1862802 and WO-A 2007/137867). Briefly, test compounds (at various concentrations) and the affinity matrix with the immobilized aminopyrido-pyrimidine ligand 24 are added to cell lysate aliquots and allowed to bind to the proteins in the lysate sample. After the incubation time the beads with captured proteins are separated from the lysate. Bound proteins are then eluted and the presence ZAP-70 is detected and quantified using a specific antibody in a dot blot procedure and the Odyssey infrared detection system. Conventionally, ZAP-70 kinase activity can be measured using purified or recombinant enzyme in a solution-based assay with protein or peptide substrates (Isakov et al., 1996, J. Biol. Chem. 271(26), 15753-15761; Moffat et al., 1999, Bioorg. Med. Chem. Letters 9, 3351-3356).
Turning to `CS(=O)(=O)Nc1ccccc1Nc1nc(Nc2cccc(F)c2)ncc1F` [Example 6, N-(2-(5-fluoro-2-(3-fluorophenylamino)pyrimidin-4-ylamino)phenyl)methanesulfonamide], the IC50 was 1000 to 10000 nM.
The same measure for `COc1cc(Nc2ncc(F)c(Nc3ccccc3NS(C)(=O)=O)n2)ccc1Cl` [Example 10, N-(2-(2-(4-chloro-3-methoxyphenylamino)-5-fluoropyrimidin-4-ylamino)phenyl)methanesulfonamide]: 1000 to 10000 nM; for `CS(=O)(=O)Nc1ccccc1Nc1nc(Nc2cccc(Cl)c2)ncc1F` [Example 12, N-(2-(2-(3-chlorophenylamino)-5-fluoropyrimidin-4-ylamino)phenyl)methanesulfonamide]: 1000 to 10000 nM.
For `CCOc1cccc(Nc2ncc(F)c(Nc3ccccc3NS(C)(=O)=O)n2)c1` [Example 13, N-(2-(2-(3-ethoxyphenylamino)-5-fluoropyrimidin-4-ylamino)phenyl)methanesulfonamide], the IC50 lay in the range of 1000 to 10000 nM.
As for `CSc1cccc(Nc2ncc(F)c(Nc3ccccc3NS(C)(=O)=O)n2)c1` [Example 15, N-(2-(5-fluoro-2-(3-(methylthio)phenylamino)pyrimidin-4-ylamino)phenyl)methanesulfonamide], the figure is 1000 to 10000 nM; as for `CS(=O)(=O)Nc1ccccc1Nc1nc(Nc2cccc(-n3cccn3)c2)ncc1F` [Example 17, N-(2-(2-(3-(1H-pyrazol-1-yl)phenylamino)-5-fluoropyrimidin-4-ylamino)phenyl)methanesulfonamide], 1000 to 10000 nM.
As for `COc1ccc(Nc2ncc(F)c(Nc3ccccc3NS(C)(=O)=O)n2)cc1Cl` [Example 19, N-(2-(2-(3-chloro-4-methoxyphenylamino)-5-fluoropyrimidin-4-ylamino)phenyl)methanesulfonamide], the figure is 1000 to 10000 nM; as for `CN1C(=O)COc2ccc(Nc3ncc(F)c(Nc4ccccc4NS(C)(=O)=O)n3)cc21` [Example 20, N-(2-(5-fluoro-2-(4-methyl-3-oxo-3,4-dihydro-2H-benzo[b][1,4]oxazin-6-ylamino)pyrimidin-4-ylamino)phenyl)methanesulfonamide], 1000 to 10000 nM; as for `CS(=O)(=O)Nc1ccccc1Nc1nc(Nc2ccc3c(c2)OCC(=O)N3)ncc1F` [Example 23, N-(2-(5-fluoro-2-(3-oxo-3,4-dihydro-2H-benzo[b][1,4]oxazin-7-ylamino)pyrimidin-4-ylamino)phenyl)methanesulfonamide], 100 to 1000 nM.
`Cc1nnc(-c2cccc(Nc3ncc(F)c(Nc4ccccc4NS(C)(=O)=O)n3)c2)[nH]1` [Example 24, N-(2-(5-fluoro-2-(3-(5-methyl-4H-1,2,4-triazol-3-yl)phenylamino)pyrimidin-4-ylamino)phenyl)methanesulfonamide] displayed an IC50 of 1000 to 10000 nM.
As for `CS(=O)(=O)Nc1ccccc1Nc1nc(Nc2cccc(OC(F)F)c2)ncc1F` [Example 26, N-(2-(2-(3-(difluoromethoxy)phenylamino)-5-fluoropyrimidin-4-ylamino)phenyl)methanesulfonamide], the figure is 1000 to 10000 nM; as for `CS(=O)(=O)Nc1ccccc1Nc1nc(Nc2ccc(OC(F)F)cc2)ncc1F` [Example 27, N-(2-(2-(4-(difluoromethoxy)phenylamino)-5-fluoropyrimidin-4-ylamino)phenyl)methanesulfonamide], 1000 to 10000 nM.
The same measure for `CS(=O)(=O)Nc1ccccc1Nc1nc(Nc2ccc3nn[nH]c3c2)ncc1F` [Example 33, N-(2-(2-(1H-benzo[d][1,2,3]-triazol-6-ylamino)-5-fluoropyrimidin-4-ylamino)phenyl)methanesulfonamide]: 100 to 1000 nM; for `CS(=O)(=O)Nc1ccccc1Nc1nc(Nc2ccccc2)ncc1F` [Example 34, N-(2-(5-fluoro-2-(phenylamino)pyrimidin-4-ylamino)phenyl)methanesulfonamide]: 1000 to 10000 nM.
For the molecule `COc1cc(Nc2ncc(F)c(Nc3ccccc3NS(=O)(=O)c3ccccc3)n2)cc(OC)c1OC` [Example 47, N-(2-(5-fluoro-2-(3,4,5-trimethoxyphenylamino)pyrimidin-4-ylamino)phenyl)benzenesulfonamide], the half-inhibitory concentration (IC50) fell in the range of 1000 to 10000 nM.
Consider `COc1cc(Nc2ncc(F)c(Nc3ccccc3NS(=O)(=O)c3cccnc3)n2)cc(OC)c1OC` [Example 52, N-(2-(5-fluoro-2-(3,4,5-trimethoxyphenylamino)pyrimidin-4-ylamino)phenyl)pyridine-3-sulfonamide], for which the IC50 lay within 1000 to 10000 nM.
As for `COc1cc(Nc2ncc(F)c(Nc3cccc(NS(=O)(=O)CC(F)(F)F)c3)n2)cc(OC)c1OC` [Example 60, 2,2,2-trifluoro-N-(3-(5-fluoro-2-(3,4,5-trimethoxyphenylamino)pyrimidin-4-ylamino)phenyl)ethanesulfonamide], the figure is 1000 to 10000 nM.
Consider `COc1cc(Nc2ncc(F)c(Nc3ccccc3NS(=O)(=O)CCN(C)C)n2)cc(OC)c1OC` [Example 61, 2-(Dimethylamino)-N-(2-(5-fluoro-2-(3,4,5-trimethoxyphenylamino)pyrimidin-4-ylamino)phenyl)ethanesulfonamide], for which the IC50 lay within 1000 to 10000 nM.
The same measure for `COc1cc(Nc2ncc(F)c(Nc3cccc(NS(=O)(=O)CCN(C)C)c3)n2)cc(OC)c1OC` [Example 65, 2-(Dimethylamino)-N-(3-(5-fluoro-2-(3,4,5-trimethoxyphenylamino)pyrimidin-4-ylamino)phenyl)ethanesulfonamide]: 1000 to 10000 nM; for `COc1cc(Nc2ncc([N+](=O)[O-])c(Nc3ccccc3NS(C)(=O)=O)n2)cc(OC)c1OC` [Example 68, N-(2-(5-nitro-2-(3,4,5-trimethoxyphenylamino)pyrimidin-4-ylamino)phenyl)methanesulfonamide]: 1000 to 10000 nM; for `COc1cc(Nc2ncc(F)c(Nc3ccccc3N(C)S(C)(=O)=O)n2)cc(OC)c1OC` [Example 71, N-(2-(5-fluoro-2-(3,4,5-trimethoxyphenylamino)pyrimidin-4-ylamino)phenyl)-N-methylmethanesulfonamide]: 100 to 1000 nM.
Consider `COc1cc(Nc2ncc(F)c(Nc3ccccc3NS(C)(=O)=O)n2)ccc1C` [Example 73, N-(2-(5-fluoro-2-(3-methoxy-4-methylphenylamino)pyrimidin-4-ylamino)phenyl)methanesulfonamide], for which the IC50 fell in the range of 100 to 1000 nM.
As for `COc1cc(Nc2ncc(F)c(Nc3ccccc3NS(C)(=O)=O)n2)cc(OCCN2CCCC2)c1OC` [Example 74, N-(2-(2-(3,4-dimethoxy-5-(2-(pyrrolidin-1-yl)ethoxy)phenylamino)-5-fluoropyrimidin-4-ylamino)phenyl)methanesulfonamide], the figure is 100 to 1000 nM; as for `COc1cc(Nc2ncc(F)c(Nc3ccccc3NS(C)(=O)=O)n2)cc(OC)c1OCCN1CCCC1` [Example 75, N-(2-(2-(3,5-dimethoxy-4-(2-(pyrrolidin-1-yl)ethoxy)phenylamino)-5-fluoropyrimidin-4-ylamino)phenyl)methanesulfonamide], less than 100 nM; as for `CNC(=O)c1cccc(Nc2ncc(F)c(Nc3ccccc3NS(C)(=O)=O)n2)c1` [Example 80, 3-(5-fluoro-4-(2-(methylsulfonamido)phenylamino)pyrimidin-2-ylamino)-N-methylbenzamide], 1000 to 10000 nM.
The same measure for `CCN(CC)C(=O)c1cccc(Nc2ncc(F)c(Nc3ccccc3NS(C)(=O)=O)n2)c1` [Example 81, N,N-diethyl-3-(5-fluoro-4-(2-(methylsulfonamido)phenylamino)pyrimidin-2-ylamino)benzamide]: 1000 to 10000 nM; for `CS(=O)(=O)Nc1ccccc1Nc1nc(Nc2cccc(C(=O)N3CCCC3)c2)ncc1F` [Example 82, N-(2-(5-fluoro-2-(3-(pyrrolidine-1-carbonyl)phenylamino)pyrimidin-4-ylamino)phenyl)methanesulfonamide]: 100 to 1000 nM.
With `CS(=O)(=O)Nc1ccccc1Nc1nc(Nc2cccc(C(=O)NC3CC3)c2)ncc1F` [Example 83, N-cyclopropyl-3-(5-fluoro-4-(2-(methylsulfonamido)phenylamino)pyrimidin-2-ylamino)benzamide], the IC50 fell in the range of 1000 to 10000 nM.
On to `CN(C)C(=O)c1cccc(Nc2ncc(F)c(Nc3ccccc3NS(C)(=O)=O)n2)c1` [Example 84, 3-(5-fluoro-4-(2-(methylsulfonamido)phenylamino)pyrimidin-2-ylamino)-N,N-dimethylbenzamide], for which the IC50 fell in the range of 100 to 1000 nM.
As for `CS(=O)(=O)Nc1ccccc1Nc1nc(Nc2cccc(N3CCCC3)c2)ncc1F` [Example 85, N-(2-(5-fluoro-2-(3-(pyrrolidin-1-yl)phenylamino)pyrimidin-4-ylamino)phenyl)methanesulfonamide], the figure is 1000 to 10000 nM.

The values above are taken from patent US20110098288A1, “SULFONAMIDES AS ZAP-70 INHIBITORS” (priority 2008, published 2011).
